Results taken from article PMC9963398, “Discovery of New Quinolone-Based Diarylamides as Potent B-RAF^V600E/C-RAF Kinase Inhibitors Endowed with Promising In Vitro Anticancer Activity” (International Journal of Molecular Sciences, 2023).

Key:
MDA-MB-231/ATCC = assay: cells; settings: Homo sapiens
Method: (§1) The anticancer screening of target compounds over a full panel of 60 human cancer cell lines was carried out using Sulforhodamine B (SRB) assay at the National Cancer Institute (NCI), Bethesda, Maryland, USA, employing the standard protocol.

PC-3 = assay: cells; settings: Homo sapiens
Method: as §1

MDA-MB-468 = assay: cells; settings: Homo sapiens
Method: as §1

IGROV1 = assay: NCI-60 five-dose SRB assay; format: cell-based; settings: Homo sapiens, IGROV-1; IGROV1, Ovarian cancer, five-dose test
Method: as §1

OVCAR-5 = assay: NCI-60 five-dose SRB assay; format: cell-based; settings: Homo sapiens; OVCAR-5, Ovarian cancer, five-dose test
Method: as §1

T-47D = assay: NCI-60 five-dose SRB assay; format: cell-based; settings: Homo sapiens, T47D, Breast cancer, five-dose test
Method: as §1

OVCAR-4 = assay: NCI-60 five-dose SRB assay; format: cell-based; settings: Homo sapiens; OVCAR-4, Ovarian cancer, five-dose test
Method: as §1

HOP-92 = assay: NCI-60 five-dose SRB assay; format: cell-based; settings: Homo sapiens; HOP-92, NSCL cancer, five-dose test
Method: as §1

DU-145 = assay: NCI-60 five-dose SRB assay; format: cell-based; settings: Homo sapiens; DU-145, Prostate cancer, five-dose test
Method: as §1

SK-OV-3 = assay: NCI-60 five-dose SRB assay; format: cell-based; settings: Homo sapiens; SK-OV-3, Ovarian cancer, five-dose test
Method: as §1

UO-31 = assay: NCI-60 five-dose SRB assay; format: cell-based; settings: Homo sapiens; UO-31, Renal cancer, five-dose test
Method: as §1

SNB-75 = assay: NCI-60 five-dose SRB assay; format: cell-based; settings: Homo sapiens; SNB-75, CNS cancer, five-dose test
Method: as §1

A549/ATCC = assay: NCI-60 five-dose SRB assay; format: cell-based; settings: Homo sapiens, NSCL cancer, five-dose test
Method: as §1

M14 = assay: NCI-60 five-dose SRB assay; format: cell-based; settings: Homo sapiens; M14, Melanoma, five-dose test
Method: as §1

NCI-H23 = assay: NCI-60 five-dose SRB assay; format: cell-based; settings: Homo sapiens; NCI-H23, NSCL cancer, five-dose test
Method: as §1

SW-620 = assay: NCI-60 five-dose SRB assay; format: cell-based; settings: Homo sapiens; SW-620, Colon cancer, five-dose test
Method: as §1

COLO 205 = assay: NCI-60 five-dose SRB assay; format: cell-based; settings: Homo sapiens; COLO 205, Colon cancer, five-dose test
Method: as §1

SF-268 = assay: NCI-60 five-dose SRB assay; format: cell-based; settings: Homo sapiens; SF-268, CNS cancer, five-dose test
Method: as §1

SF-295 = assay: NCI-60 five-dose SRB assay; format: cell-based; settings: Homo sapiens; SF-295, CNS cancer, five-dose test
Method: as §1

HOP-62 = assay: NCI-60 five-dose SRB assay; format: cell-based; settings: Homo sapiens; HOP-62, NSCL cancer, five-dose test
Method: as §1

CAKI-1 = assay: NCI-60 five-dose SRB assay; format: cell-based; settings: Homo sapiens; CAKI-1, Renal cancer, five-dose test
Method: as §1

KM12 = assay: NCI-60 five-dose SRB assay; format: cell-based; settings: Homo sapiens; KM12, Colon cancer, five-dose test
Method: as §1

EKVX = assay: NCI-60 five-dose SRB assay; format: cell-based; settings: Homo sapiens, NSCL cancer, five-dose test
Method: as §1

UACC-62 = assay: NCI-60 five-dose SRB assay; format: cell-based; settings: Homo sapiens; UACC-62, Melanoma, five-dose test
Method: as §1

UACC-257 = assay: NCI-60 five-dose SRB assay; format: cell-based; settings: Homo sapiens; UACC-257, Melanoma, five-dose test
Method: as §1

OVCAR-8 = assay: NCI-60 five-dose SRB assay; format: cell-based; settings: Homo sapiens; OVCAR-8, Ovarian cancer, five-dose test
Method: as §1

HT29 = assay: NCI-60 five-dose SRB assay; format: cell-based; settings: Homo sapiens, HT-29; HT29, Colon cancer, five-dose test
Method: as §1

BT-549 = assay: NCI-60 five-dose SRB assay; format: cell-based; settings: Homo sapiens; BT-549, Breast cancer, five-dose test
Method: as §1

HL-60(TB) = assay: NCI-60 five-dose SRB assay; format: cell-based; settings: Homo sapiens, Leukemia, five-dose test
Method: as §1

RXF 393 = assay: NCI-60 five-dose SRB assay; format: cell-based; settings: Homo sapiens; RXF 393, Renal cancer, five-dose test
Method: as §1

U251 = assay: NCI-60 five-dose SRB assay; format: cell-based; settings: Homo sapiens, U-251; U251, CNS cancer, five-dose test
Method: as §1

MOLT-4 = assay: NCI-60 five-dose SRB assay; format: cell-based; settings: Homo sapiens; MOLT-4, Leukemia, five-dose test
Method: as §1

MALME-3M = assay: NCI-60 five-dose SRB assay; format: cell-based; settings: Homo sapiens, Melanoma, five-dose test
Method: as §1

OVCAR-3 = assay: NCI-60 five-dose SRB assay; format: cell-based; settings: Homo sapiens; OVCAR-3, Ovarian cancer, five-dose test
Method: as §1

LOX IMVI = assay: NCI-60 five-dose SRB assay; format: cell-based; settings: Homo sapiens, Melanoma, five-dose test
Method: as §1

MDA-MB-435 = assay: NCI-60 five-dose SRB assay; format: cell-based; settings: Homo sapiens; MDA-MB-435, Melanoma, five-dose test
Method: as §1

SNB-19 = assay: NCI-60 five-dose SRB assay; format: cell-based; settings: Homo sapiens; SNB-19, CNS cancer, five-dose test
Method: as §1

HCC-2998 = assay: NCI-60 five-dose SRB assay; format: cell-based; settings: Homo sapiens; HCC-2998, Colon cancer, five-dose test
Method: as §1

HS 578T = assay: NCI-60 five-dose SRB assay; format: cell-based; settings: Homo sapiens, Breast cancer, five-dose test
Method: as §1

ACHN = assay: NCI-60 five-dose SRB assay; format: cell-based; settings: Homo sapiens, Renal cancer, five-dose test
Method: as §1

SN12C = assay: NCI-60 five-dose SRB assay; format: cell-based; settings: Homo sapiens, Renal cancer, five-dose test
Method: as §1

TK-10 = assay: NCI-60 five-dose SRB assay; format: cell-based; settings: Homo sapiens; TK-10, Renal cancer, five-dose test
Method: as §1

RPMI-8226 = assay: NCI-60 five-dose SRB assay; format: cell-based; settings: Homo sapiens; RPMI-8226, Leukemia, five-dose test
Method: as §1

In the case of `COc1cccc2nc(Nc3cccc(NC(=O)c4ccc(CN5CCN(C)CC5)c(C(F)(F)F)c4)c3)ccc12` [Compound 14a, 4-((4-methylpiperazin-1-yl)methyl)-N-(3-((5-methoxyquinolin-2-yl)amino)phenyl)-3-(trifluoromethyl)benzamide], the GI50 (MDA-MB-231/ATCC) is reported as 1770 nM, the GI50 (PC-3) is reported as 1700 nM and the GI50 (MDA-MB-468) is reported as 1920 nM. The GI50 (IGROV1) was 2250 nM, the GI50 (OVCAR-5) was 1840 nM and the GI50 (T-47D) was 2280 nM. The GI50 (OVCAR-4) was 2210 nM, the GI50 (HOP-92) was 1500 nM and the GI50 (DU-145) was 1980 nM. It also gave a GI50 (SK-OV-3) of 9220 nM, a GI50 (UO-31) of 1640 nM and a GI50 (SNB-75) of 1600 nM. It also gave a GI50 (A549/ATCC) of 2440 nM, a GI50 (M14) of 1760 nM and a GI50 (NCI-H23) of 1910 nM. The GI50 (SW-620) was 1730 nM, the GI50 (COLO 205) was 1790 nM and the GI50 (SF-268) was 1690 nM. It also gave a GI50 (SF-295) of 1770 nM, a GI50 (HOP-62) of 1560 nM and a GI50 (CAKI-1) of 1810 nM. For the same compound, the GI50 (KM12) was 2130 nM, the GI50 (EKVX) was 2100 nM and the GI50 (UACC-62) was 1750 nM. The GI50 (UACC-257) was 1980 nM, the GI50 (OVCAR-8) was 3090 nM and the GI50 (HT29) was 1860 nM. The GI50 (BT-549) was 7010 nM, the GI50 (HL-60(TB)) was 1220 nM and the GI50 (RXF 393) was 1730 nM. The GI50 (U251) was 1920 nM, the GI50 (MOLT-4) was 1450 nM and the GI50 (MALME-3M) was 1650 nM. For the same compound, the GI50 (OVCAR-3) was 2150 nM, the GI50 (LOX IMVI) was 1740 nM and the GI50 (MDA-MB-435) was 1680 nM. It also gave a GI50 (SNB-19) of 1780 nM, a GI50 (HCC-2998) of 1990 nM and a GI50 (HS 578T) of 1840 nM. It also gave a GI50 (ACHN) of 2050 nM, a GI50 (SN12C) of 1710 nM and a GI50 (TK-10) of 2150 nM. It also gave a GI50 (RPMI-8226) of 2780 nM.
Compound `CN1CCCN(Cc2ccc(C(=O)Nc3cccc(Nc4ccc5c(O)cccc5n4)c3)cc2C(F)(F)F)CC1` [Compound 17b, N-(3-((5-hydroxyquinolin-2-yl)amino)phenyl)-4-((4-methyl-1,4-diazepan-1-yl)methyl)-3-(trifluoromethyl)benzamide] has a GI50 (MDA-MB-231/ATCC) of 1650 nM, a GI50 (PC-3) of 1870 nM and a GI50 (MDA-MB-468) of 1660 nM. It also gave a GI50 (IGROV1) of 2560 nM, a GI50 (OVCAR-5) of 11400 nM and a GI50 (T-47D) of 3460 nM. For the same compound, the GI50 (OVCAR-4) was 3830 nM, the GI50 (HOP-92) was 1640 nM and the GI50 (DU-145) was 3270 nM. For the same compound, the GI50 (SK-OV-3) was 11100 nM, the GI50 (UO-31) was 2040 nM and the GI50 (SNB-75) was 1320 nM. It also gave a GI50 (A549/ATCC) of 3630 nM, a GI50 (M14) of 1890 nM and a GI50 (NCI-H23) of 1780 nM. For the same compound, the GI50 (SW-620) was 1950 nM, the GI50 (COLO 205) was 1830 nM and the GI50 (SF-268) was 2140 nM. It also gave a GI50 (SF-295) of 1670 nM, a GI50 (HOP-62) of 2030 nM and a GI50 (CAKI-1) of 1790 nM. The GI50 (KM12) was 1980 nM, the GI50 (EKVX) was 1820 nM and the GI50 (UACC-62) was 1690 nM. It also gave a GI50 (UACC-257) of 1600 nM, a GI50 (OVCAR-8) of 2510 nM and a GI50 (HT29) of 1920 nM. For the same compound, the GI50 (BT-549) was 1800 nM, the GI50 (HL-60(TB)) was 2350 nM and the GI50 (RXF 393) was 1850 nM. For the same compound, the GI50 (U251) was 2070 nM, the GI50 (MOLT-4) was 2110 nM and the GI50 (MALME-3M) was 1700 nM. For the same compound, the GI50 (OVCAR-3) was 1970 nM, the GI50 (LOX IMVI) was 1630 nM and the GI50 (MDA-MB-435) was 1780 nM. For the same compound, the GI50 (SNB-19) was 2030 nM, the GI50 (HCC-2998) was 1800 nM and the GI50 (HS 578T) was 1930 nM. The GI50 (ACHN) was 1920 nM, the GI50 (SN12C) was 1830 nM and the GI50 (TK-10) was 2800 nM. It also gave a GI50 (RPMI-8226) of 2890 nM.
